Data reported in publication PMC2947513, “Identification of an Archaeal Presenilin-Like Intramembrane Protease” (PLoS ONE, 2010).

Target: T1, MCMJR1 (Methanoculleus marisnigri, UniProt A3CWV0)
T1 construct: gene Memar_1924; full-length; N-terminal His6-SUMO fusion cut off with ULP1; expressed in E. coli Rosetta (DE3) pLysS; detergent-purified; catalytic D162 and D220; eight predicted TMDs
T1 sequence (A3CWV0 1-301): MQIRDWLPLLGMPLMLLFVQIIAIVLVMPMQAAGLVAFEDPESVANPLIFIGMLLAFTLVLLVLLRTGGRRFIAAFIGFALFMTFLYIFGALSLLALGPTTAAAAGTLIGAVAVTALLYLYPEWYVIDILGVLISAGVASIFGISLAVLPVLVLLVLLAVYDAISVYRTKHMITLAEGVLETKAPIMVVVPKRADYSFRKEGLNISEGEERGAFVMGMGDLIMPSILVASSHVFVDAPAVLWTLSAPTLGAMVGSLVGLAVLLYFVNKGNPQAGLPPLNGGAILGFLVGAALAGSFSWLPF
Assay: cleavage of Gurken-TMD (MBP chimera), anti-MBP western blot with densitometry
Assay type: biochemical
Conditions: transition-state analog; 0.8 µM enzyme, 2 h pre-incubation at 37 °C, 0.8 µM Gurken-TMD, 8 h; 31C at 10-100 µM; IC50 not given

COC(=O)C(NC(=O)C(CC(C)C)NC(=O)N(Cc1ccccc1)CC(O)C(Cc1ccccc1)NC(=O)OC(C)(C)C)C(C)C (stereo not shown) [31C]
complete inhibition of activity: ~ 100 µM
